From ChEMBL document CHEMBL5120905, “Examining the Role of the Linker in Bitopic N6-Substituted Adenosine Derivatives Acting as Biased Adenosine A1 Receptor Agonists” (J Med Chem, 2022)

Key:
Assay type in all cases: functional, cell-based
Adenosine receptor A2a = Adenosine receptor A2a (Homo sapiens, UniProt P29274); experiment: Agonist activity at human A2A receptor expressed in Flp-In-CHO cells assessed as cAMP accumulation incubated for 30 mins by LANCE cAMP assay
Adenosine receptor A1 [1] = biological target: T1, Adenosine receptor A1 (Homo sapiens, UniProt P30542); experiment: Agonist activity at human A1 receptor expressed in Flp-In-CHO cells assessed as inhibition of forskolin stimulated cAMP accumulation incubated for 30 mins by LANCE cAMP assay
T1 sequence (P30542 whole entry): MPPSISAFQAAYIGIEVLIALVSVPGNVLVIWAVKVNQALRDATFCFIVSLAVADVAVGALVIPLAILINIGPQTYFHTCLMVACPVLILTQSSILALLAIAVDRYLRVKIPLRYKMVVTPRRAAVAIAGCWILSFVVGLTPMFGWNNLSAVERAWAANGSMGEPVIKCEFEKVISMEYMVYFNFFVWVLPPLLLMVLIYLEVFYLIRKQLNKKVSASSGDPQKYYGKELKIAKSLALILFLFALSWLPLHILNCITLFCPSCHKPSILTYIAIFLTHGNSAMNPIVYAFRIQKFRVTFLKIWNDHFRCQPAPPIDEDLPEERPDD

Adenosine receptor A2b = biological target: T2, Adenosine receptor A2b (Homo sapiens, UniProt P29275); experiment: Agonist activity at human A2B receptor expressed in Flp-In-CHO cells assessed as cAMP accumulation incubated for 10 mins in presence of forskolin by LANCE cAMP assay
T2 sequence (P29275 whole entry): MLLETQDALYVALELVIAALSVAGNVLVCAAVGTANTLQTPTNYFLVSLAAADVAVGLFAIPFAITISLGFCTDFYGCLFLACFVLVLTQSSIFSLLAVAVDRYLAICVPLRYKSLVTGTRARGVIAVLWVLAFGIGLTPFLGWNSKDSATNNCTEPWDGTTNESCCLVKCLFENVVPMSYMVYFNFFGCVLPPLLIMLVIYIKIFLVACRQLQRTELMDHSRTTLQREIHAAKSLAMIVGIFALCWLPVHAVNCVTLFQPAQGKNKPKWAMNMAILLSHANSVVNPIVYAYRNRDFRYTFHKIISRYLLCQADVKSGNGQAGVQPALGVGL

Adenosine receptor A1 [2] = biological target: T1, Adenosine receptor A1; experiment: Agonist activity at human A1 receptor expressed in Flp-In-CHO cells assessed as stimulation of calcium mobilization by calcium mobilization assay

Chain of Adenosine receptor A2a (P29274 whole entry): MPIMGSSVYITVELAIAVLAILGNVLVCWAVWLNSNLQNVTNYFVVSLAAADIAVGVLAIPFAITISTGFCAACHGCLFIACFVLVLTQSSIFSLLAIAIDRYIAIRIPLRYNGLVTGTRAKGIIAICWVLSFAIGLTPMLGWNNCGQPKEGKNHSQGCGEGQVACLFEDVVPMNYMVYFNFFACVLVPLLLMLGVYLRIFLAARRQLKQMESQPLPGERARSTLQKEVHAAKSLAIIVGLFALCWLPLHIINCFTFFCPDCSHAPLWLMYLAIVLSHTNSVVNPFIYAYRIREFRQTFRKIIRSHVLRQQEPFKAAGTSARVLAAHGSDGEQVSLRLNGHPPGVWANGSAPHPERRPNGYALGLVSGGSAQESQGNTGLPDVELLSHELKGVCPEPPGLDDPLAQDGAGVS

Compound	EC50 (Adenosine receptor A2a)	EC50 (Adenosine receptor A1 [1])	EC50 (Adenosine receptor A2b)	EC50 (Adenosine receptor A1 [2])
Nc1sc(-c2ccc(C(=O)NCCCCCCNc3ncnc4c3ncn4[C@@H]3O[C@H](CO)[C@@H](O)[C@H]3O)cc2)c(-c2cccc(C(F)(F)F)c2)c1C(=O)c1ccccc1	389 nM			
Nc1sc(-c2ccc(C(=O)NCCc3ccc(CCNc4ncnc5c4ncn5[C@@H]4O[C@H](CO)[C@@H](O)[C@H]4O)cc3)cc2)c(-c2cccc(C(F)(F)F)c2)c1C(=O)c1ccccc1	363 nM	550 nM	52.5 nM	> 10000 nM
Nc1sc(-c2ccc(C(=O)NCCC#Cc3ccc(Nc4ncnc5c4ncn5[C@@H]4O[C@H](CO)[C@@H](O)[C@H]4O)cc3)cc2)c(-c2cccc(C(F)(F)F)c2)c1C(=O)c1ccccc1	741 nM			
